Experimental data taken from patent US5336690A, “Aminosulfonyl carbamates composition and method of use to treat hypercholesterolemia and atherosclerosis” (Warner-Lambert Company, priority 1993, dated 1994).
Counter-ions that a name gives are not always drawn.

Assay: APCC in vivo screen: blood cholesterol in male Sprague-Dawley rats on high fat, high cholesterol diet with 0.5% cholic acid
Details: Rattus norvegicus, single dose 30 mg/kg, high fat high cholesterol diet overnight, read-out: % Change (mg/dl) (cholesterol)
Text: In one in vivo screen designated APCC, male Sprague-Dawley rats (200 to 225 g) were randomly divided into treatment groups and dosed at 4 PM with either vehicle (CMC/Tween) or suspensions of compounds in vehicle. The normal chow diet was then replaced with a high fat, high cholesterol diet with 0.5% cholic acid. The rats consumed this diet ad libitum during the night and were sacrificed at 8 AM to obtain blood samples for cholesterol analysis using standard procedures. Statistical differences between mean cholesterol values for the same vehicle were determined using analysis of variance followed by Fisher's least significant test. The compounds were dosed at 30 mg/kg unless otherwise noted.
With `COc1cc(C(C)(C)C)c(OC(=O)NS(=O)(=O)NCC(c2ccccc2)c2ccccc2)c(C(C)(C)C)c1` [Example 3] the change in vivo at 30 mg/kg was -55%.
Compound `COc1cc(C(C)(C)C)c(OC(=O)NS(=O)(=O)Nc2c(C(C)C)cccc2C(C)C)c(C(C)(C)C)c1` [Example 4, 2,6-bis(1,1-dimethylethyl)-4-methoxy phenyl[[[2,6-bis(1-methylethyl)phenyl]amino]sulfonyl]carbamate] has a change in vivo at 30 mg/kg of -77%.
`CC(C)c1cccc(C(C)C)c1OC(=O)NS(=O)(=O)N(c1ccccc1)c1ccccc1` [Example 10, 2,6-bis(1-methylethyl)phenyl[(diphenylamino)sulfonyl]carbamate] gave a change in vivo at 30 mg/kg of -67%.
With `CC(C)c1cccc(C(C)C)c1OC(=O)NS(=O)(=O)N(Cc1ccccc1)Cc1ccccc1` [Example 12, 2,6-Bis(1-methylethyl)phenyl[[bis(phenylmethyl)amino]sulfonyl]carbamate] the change in vivo at 30 mg/kg was -43%.
`CC(C)c1cccc(C(C)C)c1OC(=O)NS(=O)(=O)Nc1nc2ccccc2[nH]1` [Example 13, 2,6-Bis(1-methylethyl)phenyl[(1H-benzimidazol-2-ylamino)sulfonyl]carbamate] gave a change in vivo at 30 mg/kg of 8%.
In the case of `CCCCN(CCCC)S(=O)(=O)NC(=O)Oc1c(C(C)(C)C)cc(C)cc1C(C)(C)C` [Example 22, 2,6-Bis(1,1-dimethylethyl)-4-methylphenyl[(dibutylamino)sulfonyl]carbamate], the change in vivo at 30 mg/kg is reported as -4%.
For `CCCCCN(CCCCC)S(=O)(=O)NC(=O)Oc1c(C(C)(C)C)cc(C)cc1C(C)(C)C` [Example 23, 2,6-Bis(1,1-dimethylethyl)-4-methylphenyl[(dipentylamino)sulfonyl]carbamat], the change in vivo at 30 mg/kg was -42%.
Compound `Cc1cc(C(C)(C)C)c(OC(=O)NS(=O)(=O)N(C(C)C)C(C)C)c(C(C)(C)C)c1` [Example 24, 2,6-Bis(1,1-dimethylethyl)-4-methylphenyl[[bis(1-methylethyl)amino]sulfonyl]carbamate] has a change in vivo at 30 mg/kg of -19%.
With `CCCCCCN(CCCCCC)S(=O)(=O)NC(=O)Oc1c(C(C)(C)C)cc(C)cc1C(C)(C)C` [Example 25, 2,6-Bis(1,1-dimethylethyl)-4-methylphenyl[(dihexylamino)sulfonyl]carbamate] the change in vivo at 30 mg/kg was -40%.
`CCCCCCNS(=O)(=O)NC(=O)Oc1c(C(C)(C)C)cc(C)cc1C(C)(C)C` [Example 26, 2,6-Bis(1,1-dimethylethyl)-4-methylphenyl[(hexylamino)sulfonyl]carbamate] gave a change in vivo at 30 mg/kg of -52%.
`CCCCCCCCN(C)S(=O)(=O)NC(=O)Oc1c(C(C)(C)C)cc(C)cc1C(C)(C)C` [Example 29, 2,6-Bis(1,1-dimethylethyl)-4-methylphenyl[(methyloctylamino)sulfonyl]carbamate] gave a change in vivo at 30 mg/kg of -55%.
Compound `Cc1cc(C(C)(C)C)c(OC(=O)NS(=O)(=O)N(CC2CCCO2)CC2CCCO2)c(C(C)(C)C)c1` (centres unmarked) [Example 30, 2,6-Bis(1,1-dimethylethyl)4-methylphenyl[[bis[(tetrahydro-2-furanyl)methyl]amino]sulfonyl]carbamate] has a change in vivo at 30 mg/kg of 2%.
In the case of `CCCCCCCCN(CCCCCCCC)S(=O)(=O)NC(=O)Oc1c(C(C)(C)C)cc(C)cc1C(C)(C)C` [Example 31, 2,6-Bis(1,1-dimethylethyl)-4-methylphenyl[(dioctylamino)sulfonyl]carbamate], the change in vivo at 30 mg/kg is reported as 0%.
`CCCCCCCCCCN(CCCCCCCCCC)S(=O)(=O)NC(=O)Oc1c(C(C)(C)C)cc(C)cc1C(C)(C)C` [Example 34] showed a change in vivo at 30 mg/kg of -4%.
For `CC(C)c1cccc(C(C)C)c1OC(=O)NS(=O)(=O)N(C(C)C)C(C)C` [Example 35, 2,6-Bis(1-methylethyl)phenyl[[bis(1-methylethyl)amino]sulfonyl]carbamate], the change in vivo at 30 mg/kg was -76%.
`CC(C)c1cccc(C(C)C)c1OC(=O)NS(=O)(=O)N(Cc1ccccc1)C(C)C` [Example 36] showed a change in vivo at 30 mg/kg of -70%.
For `CCCCCCNS(=O)(=O)NC(=O)Oc1c(C(C)C)cccc1C(C)C` [Example 37, 2,6-Bis(1-methylethyl)phenyl[(hexylamino)sulfonyl]carbamate], the change in vivo at 30 mg/kg was -58%.
Work on `CCCCCCCCN(CCCCCCCC)S(=O)(=O)NC(=O)Oc1c(C(C)C)cccc1C(C)C` [Example 38, 2,6-Bis(1-methylethyl)phenyl[(dioctylamino)sulfonyl]carbamate] yielded a change in vivo at 30 mg/kg of -70%.
Work on `CC(C)c1cccc(C(C)C)c1OC(=O)NS(=O)(=O)N(C(C)C)C1CCCCC1` [Example 39, 2,6-Bis(1-methylethyl)phenyl[[cyclohexyl(1-methylethyl)amino]sulfonyl]carbamate] yielded a change in vivo at 30 mg/kg of -60%.
For `CCCCCCCCN(C)S(=O)(=O)NC(=O)Oc1c(C(C)C)cccc1C(C)C` [Example 40, 2,6-Bis(1-methylethyl)phenyl[(methyloctylamino)sulfonyl]carbamate], the change in vivo at 30 mg/kg was -60%.
With `CCCCCCN(CCCCCC)S(=O)(=O)NC(=O)Oc1c(C(C)C)cccc1C(C)C` [Example 41, 2,6-Bis(1-methylethyl)phenyl[(dihexylamino)sulfonyl]carbamate] the change in vivo at 30 mg/kg was -62%.
Compound `CCCCCN(CCCCC)S(=O)(=O)NC(=O)Oc1c(C(C)C)cccc1C(C)C` [Example 42, 2,6-Bis(1-methylethyl)phenyl[(dipentylamino)sulfonyl]carbamate] has a change in vivo at 30 mg/kg of -74%.
Work on `CC(C)c1cccc(C(C)C)c1OC(=O)NS(=O)(=O)N1CCCC1` [Example 52, 2,6-Bis(1-methylethyl)-phenyl ester(1-pyrrolidinylsulfonyl)-carbamic acid] yielded a change in vivo at 30 mg/kg of -53%.
Compound `CC(C)c1cccc(C(C)C)c1OC(=O)NS(=O)(=O)N1CCc2ccccc21` [Example 54] has a change in vivo at 30 mg/kg of -77%.

Same assay, conditions: Rattus norvegicus, single dose 50 mg/kg (*), high fat high cholesterol diet overnight, read-out: % Change (mg/dl) (cholesterol)
For `CC(C)(C)c1cccc(C(C)(C)C)c1OC(=O)NS(=O)(=O)NC(c1ccccc1)c1ccccc1` [Example 5, 2,6-bis(1,1-dimethylethyl)phenyl[[(diphenylmethyl)amino]sulfonyl]carbamate], the change in vivo at 50 mg/kg was -35%.
`CC(C)c1cccc(C(C)C)c1NS(=O)(=O)NC(=O)Oc1c(C(C)(C)C)cccc1C(C)(C)C` [Example 6, 2,6-bis(1,1-dimethylethyl)phenyl[[[2,6-bis(1-methylethyl)phenyl]amino]sulfonyl]carbamate] showed a change in vivo at 50 mg/kg of -57%.
Compound `CC(C)(C)c1cccc(C(C)(C)C)c1OC(=O)NS(=O)(=O)NCC(c1ccccc1)c1ccccc1` [Example 7, 2,6-bis(1,1-dimethylethyl)phenyl[[(2,2-diphenylethyl)amino]sulfonyl]carbamate] has a change in vivo at 50 mg/kg of -32%.
With `CC(C)(C)c1cccc(C(C)(C)C)c1OC(=O)NS(=O)(=O)Nc1ccccc1` [Example 8, 2,6-bis(1,1-dimethylethyl)phenyl[(phenylamino)sulfonyl]carbamate] the change in vivo at 50 mg/kg was -26%.
`CC(C)(C)c1cccc(C(C)(C)C)c1OC(=O)NS(=O)(=O)N(Cc1ccccc1)Cc1ccccc1` [Example 9] showed a change in vivo at 50 mg/kg of -3%.
Compound `CC(C)c1cccc(C(C)C)c1OC(=O)NS(=O)(=O)Nc1ccccc1` [Example 14, 2,6-Bis(1-methylethyl)phenyl[(phenylamino)sulfonyl]carbamate] has a change in vivo at 50 mg/kg of -55%.
Compound `CC(C)c1cccc(C(C)C)c1OC(=O)NS(=O)(=O)NCC(c1ccccc1)c1ccccc1` [Example 15] has a change in vivo at 50 mg/kg of -29%.
Work on `CC(C)c1cccc(C(C)C)c1NS(=O)(=O)NC(=O)Oc1c(C(C)C)cccc1C(C)C` [Example 16, 2,6-Bis(1-methylethyl)phenyl[[[2,6-bis(1-methylethyl)phenyl]amino]sulfonyl]carbamate] yielded a change in vivo at 50 mg/kg of -65%.
Work on `CC(C)c1cccc(C(C)C)c1OC(=O)NS(=O)(=O)NC(c1ccccc1)c1ccccc1` [Example 17, 2,6-Bis(1-methylethyl)phenyl[[(diphenylmethyl)amino]sulfonyl]carbamate] yielded a change in vivo at 50 mg/kg of -46%.
`Cc1cc(C(C)(C)C)c(OC(=O)NS(=O)(=O)NC(c2ccccc2)c2ccccc2)c(C(C)(C)C)c1` [Example 18, 2,6-Bis(1,1-dimethylethyl)-4-methylphenyl[[(diphenylmethyl)amino]sulfonyl]carbamate] showed a change in vivo at 50 mg/kg of -42%.
`Cc1cc(C(C)(C)C)c(OC(=O)NS(=O)(=O)Nc2c(C(C)C)cccc2C(C)C)c(C(C)(C)C)c1` [Example 19] showed a change in vivo at 50 mg/kg of -56%.
Work on `Cc1cc(C(C)(C)C)c(OC(=O)NS(=O)(=O)NCC(c2ccccc2)c2ccccc2)c(C(C)(C)C)c1` [Example 20, 2,6-Bis(1,1-dimethylethyl)-4-methylphenyl[[(2,2-diphenylethyl)amino]sulfonyl]carbamate] yielded a change in vivo at 50 mg/kg of -54%.
For `Cc1cc(C(C)(C)C)c(OC(=O)NS(=O)(=O)Nc2ccccc2)c(C(C)(C)C)c1` [Example 21, 2,6-Bis(1,1-dimethylethyl)-4-methylphenyl[(phenylamino)sulfonyl]carbamate], the change in vivo at 50 mg/kg was -33%.

Same assay, conditions: rat, single dose 30 mg/kg, high fat high cholesterol diet overnight, read-out: % Change (mg/dl) (cholesterol)
`CCCCCCCCCCCCOC(=O)NS(=O)(=O)Nc1c(C(C)C)cccc1C(C)C` [Example 2] showed a change in vivo at 30 mg/kg of 0%.
`Cc1cc(C(C)(C)C)c(OC(=O)NS(=O)(=O)N(CCCN(C)C)CCCN(C)C)c(C(C)(C)C)c1` [Example 28, 2,6-Bis(1,1-dimethylethyl)-4-methylphenyl[[[bis-3-(di-methylamino)propyl]amino]sulfonyl]carbamate] gave a change in vivo at 30 mg/kg of -13%.
Compound `CCCCCCCCCCCCOC(=O)NS(=O)(=O)Nc1c(OC)cc(OC)cc1OC` [Example 43, Dodecyl[[(2,4,6-trimethoxyphenyl)amino]sulfonyl]carbamate] has a change in vivo at 30 mg/kg of -8%.

Same assay, conditions: rat, single dose 30 mg/kg, high fat high cholesterol diet overnight, sodium salt, 30 mg/kg
In the case of `Cc1cc(C(C)(C)C)c(OC(=O)NS(=O)(=O)N(C)CCc2ccccn2)c(C(C)(C)C)c1` [Example 33, 2,6-Bis(1,1-dimethylethyl)-4-methylphenyl[[[methyl 2-(2-pyridinyl)ethyl]amino]sulfonyl]carbamate, sodium salt], the “% Change (mg/dl) (cholesterol)” value is reported as -22 % Change (mg/dl).
